Values after ≈ are worked out from the molar mass of the structure shown. Read-outs that look alike come from different tables or passages of the source.
Assays:
Assay type in all cases: cell-based
[1] = tested on: VRE-UCD3 (vancomycin resistant enterococci); assay: MIC assay, VRE strain UCD-3; conditions: for MIC: Enterococcus, VRE
Procedure: (§1) These assays are adapted from NCCLS protocols M7-A4 and M27-A (NCCLS vol 17:9 and vol 17:2) as modified by Sandven, S. Clin. Micro. (1999) 37:12, p.3856-3859. MIC values for Aspergillus fumigatus were determined using NCCLS protocol M38-P.
(§2) All compounds were dissolved in 100% DMSO to a stock concentration of 10 mM and use fresh or stored at −80° C. Stock compounds were kept frozen until needed and used freshly with no more then one freeze-thaw cycle. When used for test purposes, compounds were diluted in the appropriate media depending on the organism being tested.
(§3) For yeast and aspergillus species, seven 1:2 serial dilutions of compound in appropriate media buffered with MOPS at pH 7.0 were prepared such that the final starting test compound concentrations were 50.0 uM for yeast and 50 uM aspergillus species. For bacteria, dilutions were made in growth media used for the particular bacteria being tested.
(§4) Inoculums are made in the same manner as yeast except all dilutions are made in normal saline, with a final dilution of 1:200 and an inoculum of 10 μL. VRE are vancomycin resistant enterococci, BM4147 and UCD-3 represent two different sources of VRE. MRSA are […] resistant Staphylococcus Aureus.

[2] = tested on: VRE-CSUC4 (vancomycin resistant enterococci); assay: MIC assay, VRE strain CSUC-4; conditions: for MIC: Enterococcus, VRE
Procedure: as §1, §2, §3, §4

[3] = tested on: VRE-BM4147 (vancomycin resistant enterococci); assay: MIC assay, VRE strain BM4147; conditions: for MIC: Enterococcus, VRE
Procedure: as §1, §2, §3, §4

Moraxella catarrhalis = assay: MIC assay, M. catarrhalis; conditions: BHI, 16 h
Procedure: as §1, §2, §3, §4

Streptococcus pneumoniae = assay: MIC assay, S. pneumoniae; conditions: CAMHB + 5% LHB, 24 h
Procedure: as §1, §2, §3, §4

Pseudomonas aeruginosa = assay: MIC assay, P. aeruginosa; conditions: CAMHB, 16 h
Procedure: as §1, §2, §3, §4

Haemophilus influenzae = assay: MIC assay, H. influenzae; conditions: HTM, 24 h
Procedure: as §1, §2, §3, §4

Staphylococcus aureus = assay: MIC assay, S. aureus; conditions: CAMHB, 16 h
Procedure: as §1, §2, §3, §4

Candida albicans = assay: MIC assay, yeast C. albicans; conditions: RPMI, 48 h, Alamar Blue; for MIC: Candida albicans
Bacillus cereus = assay: MIC assay, B. cereus; conditions: CAMHB, 16 h; for MIC: Bacillus cereus, read-out: MIC Assay Other Strains: B. cereus
Procedure: as §1, §2, §3, §4

[4] = tested on: VRE-UL17 (vancomycin resistant enterococci); assay: MIC assay, VRE strain UL-17; conditions: for MIC: Enterococcus, VRE
Procedure: as §1, §2, §3, §4

WST-CEM T-cell line = assay: Toxicity screen on WST-CEM T-cell line; conditions: WST-CEM T-cell line; ND = no drug control
Procedure: Toxicity screen was done on a WST-CEM T-cell line and the minimum percent verses a no drug control was measured.

[5] = tested on: MRSA (methylacillin resistant Staphylococcus Aureus); assay: MIC assay, MRSA; conditions: Staphylococcus aureus, MRSA
Procedure: as §1, §2, §3, §4

E coli = assay: MIC assay, E coli
Procedure: as §1, §2, §3, §4

Aspergillus fumigatus = assay: MIC assay, filamentous fungi A. fumigatus; conditions: Aspergillus fumigatus; 48 h at 35C, no visible growth
[6] = 25 μg/mL Vancomycin - 24 h, read-out: MIC Assay VRE Strains: UCD-3 van25
[7] = 25 μg/mL Vancomycin - 24 h, read-out: MIC Assay VRE Strains: BM4147 van25

SMILES | MIC Assay VRE Strains: UCD-3 van25 ([1]; 25 μg/mL Vancomycin - 24 h) | MIC Assay VRE Strains: UCD-3 van0 ([1]; No vancomycin - 16 h) | MIC Assay VRE Strains: CSUC-4 van25 ([2]; 25 μg/mL Vancomycin - 24 h) | MIC Assay VRE Strains: CSUC-4 van0 ([2]; No vancomycin - 16 h) | MIC Assay VRE Strains: BM4147 van25 ([3]; 25 μg/mL Vancomycin - 24 h) | MIC Assay VRE Strains: BM4147 van0 ([3]; No vancomycin - 16 h) | MIC Assay Other Strains: M. catarrhalis (Moraxella catarrhalis) | MIC Assay Other Strains: S. pneumoniae (Streptococcus pneumoniae) | MIC Assay Other Strains: P. aeruginosa (Pseudomonas aeruginosa) | MIC Assay Other Strains: H influenzae (Haemophilus influenzae) | MIC Assay Other Strains: S. aureus (Staphylococcus aureus) | MIC Assay C. Albicans (Candida albicans) | MIC Assay Other Strains: B. cereus (Bacillus cereus) | MIC Assay VRE Strains: UL-17 van25 ([4]; 25 μg/mL Vancomycin - 24 h) | MIC Assay VRE Strains: UL-17 van0 ([4]; No vancomycin - 16 h) | also measured
Cn1cc(NC(=O)c2cc(NC(=O)CN)cn2C)cc1C(=O)NCCCN(CCCNC(=O)c1cc(NC(=O)c2cc(NC(=O)CN)cn2C)cn1C)C(=O)OCc1ccccc1 [Compound 42] | 45.5 µM | 45.5 µM (≈ 39.5 µg/mL) | 22.7 µM | 22.7 µM (≈ 19.7 µg/mL) | >45.5 µM | >45.5 µM | 11.4 µM (≈ 9.89 µg/mL) | 1.4 µM | >45.5 µM | >45.5 µM | >45.5 µM | >44.4 µM | 11.4 µM (≈ 9.89 µg/mL) | 45.5 µM | 22.7 µM (≈ 19.7 µg/mL) | –
Cn1cc(NC(=O)c2cc(NC(=O)CN)cn2C)cc1C(=O)NCCCNCCCNC(=O)c1cc(NC(=O)c2cc(NC(=O)CN)cn2C)cn1C [Compound 113] | – | – | – | – | – | – | – | – | – | – | – | – | – | – | – | MIC [1, 6]: 11.4 µM; MIC ([1]; No vancomycin - 16 h, read-out: MIC Assay VRE Strains: UCD-3 van0): 22.7 µM (≈ 16.7 µg/mL); MIC ([2]; 25 μg/mL Vancomycin - 24 h, read-out: MIC Assay VRE Strains: CSUC-4 van25): 45.5 µM; MIC ([2]; No vancomycin - 16 h, read-out: MIC Assay VRE Strains: CSUC-4 van0): 22.7 µM (≈ 16.7 µg/mL); MIC [3, 7]: 22.7 µM; MIC ([3]; No vancomycin - 16 h, read-out: MIC Assay VRE Strains: BM4147 van0): 22.7 µM (≈ 16.7 µg/mL); MIC (Moraxella catarrhalis; Moraxella catarrhalis, read-out: MIC Assay Other Strains: M. catarrhalis): 5.7 µM (≈ 4.18 µg/mL); MIC (Streptococcus pneumoniae; Streptococcus pneumoniae, read-out: MIC Assay Other Strains: S. pneumoniae): 11.4 µM; MIC (Pseudomonas aeruginosa; Pseudomonas aeruginosa, read-out: MIC Assay Other Strains: P. aeruginosa): > 45.5 µM; MIC (Haemophilus influenzae; Haemophilus influenzae, read-out: MIC Assay Other Strains: H influenzae): > 45.5 µM; MIC (Staphylococcus aureus; Staphylococcus aureus, read-out: MIC Assay Other Strains: S. aureus): > 45.5 µM; MIC (Candida albicans): > 44.4 µM; MIC (Bacillus cereus): 11.4 µM (≈ 8.37 µg/mL); MIC ([4]; 25 μg/mL Vancomycin - 24 h, read-out: MIC Assay VRE Strains: UL-17 van25): 22.7 µM; MIC ([4]; No vancomycin - 16 h, read-out: MIC Assay VRE Strains: UL-17 van0): > 45.5 µM
Cn1cc(NC(=O)c2cc(NC(=O)CN)cn2C)cc1C(=O)NCCCN(CCCNC(=O)c1cc(NC(=O)c2cc(NC(=O)CN)cn2C)cn1C)CCCNC(=O)c1cc(NC(=O)c2cc(NC(=O)CN)cn2C)cn1C [Compound 74, tris-{4-[(NH2CH2CONH)-1-methyl-1H-pyrrol-2-yl-carbonylamino]-1-methyl-1H-pyrrol-2-yl-carbonylaminopropyl}amine] | 11.4 µM | 5.7 µM (≈ 6.23 µg/mL) | 22.7 µM | 22.7 µM (≈ 24.8 µg/mL) | 22.7 µM | 22.7 µM (≈ 24.8 µg/mL) | 1.4 µM (≈ 1.53 µg/mL) | 2.8 µM | >45.5 µM | >45.5 µM | 22.7 µM (≈ 24.8 µg/mL) | >44.4 µM | 11.4 µM (≈ 12.5 µg/mL) | 22.7 µM | 11.4 µM (≈ 12.5 µg/mL) | –
Cn1cc(NC(=O)c2cc(NC(=O)c3cc(NC(=O)CN)cn3C)cn2C)cc1C(=O)NCCCN(CCCN)CCCNC(=O)c1cc(NC(=O)c2cc(NC(=O)c3cc(NC(=O)CN)cn3C)cn2C)cn1C [Compound 66, N,N-bis-{4-{4-[(NH2CH2CONH)-1-methyl-1H-pyrrol-2-yl-carbonylamino]-1-methyl-1H-pyrrol-2-ylcarbonylamino}-1-methyl-1H-pyrrol-2-yl-carbonylaminopropyl}-N-(3-aminoethylpropyl)amine] | >45.5 µM | – | >45.5 µM | – | >45.5 µM | – | >45.5 µM | >45.5 µM | >45.5 µM | >45.5 µM | >45.5 µM | >44.4 µM | >45.5 µM | >45.5 µM | – | –
Cn1cc(NC(=O)c2cc(NC(=O)CN)cn2C)cc1C(=O)NCCNC(=O)c1cc(NC(=O)c2cc(NC(=O)CN)cn2C)cn1C [Compound 10, bis-1,2-{4-[(NH2CH2CONH)-1-methyl-1H-pyrrol-2-yl-carbonylamino]-1-methyl-1H-pyrrol-2-ylcarbonylamino}ethane] | >45.5 µM | >45.5 µM | >45.5 µM | >45.5 µM | >45.5 µM | >45.5 µM | >45.5 µM | >45.5 µM | >45.5 µM | >45.5 µM | >45.5 µM | >44.4 µM | >45.5 µM | >45.5 µM | >45.5 µM | –
Cn1cc(NC(=O)CN)cc1C(=O)Nc1cc(C(=O)NC2CCC(CC3CCC(NC(=O)c4cc(NC(=O)c5cc(NC(=O)CN)cn5C)cn4C)CC3)CC2)n(C)c1 (stereo not shown) [Compound 21] | >45.5 µM | >45.5 µM | >45.5 µM | >45.5 µM | >45.5 µM | >45.5 µM | >45.5 µM | >45.5 µM | >45.5 µM | >45.5 µM | >45.5 µM | >44.4 µM | >45.5 µM | >45.5 µM | >45.5 µM | –
NCC(=O)Nc1cc(C(=O)NCCNC(=O)c2cc(NC(=O)CN)cn2CC2CC2)n(CC2CC2)c1 [Compound 169, Bis-1,2-[4-(2-amino-acetylamino)-1-cyclopropylmethyl-1H-pyrrol-2-yl-carbonylamino]-ethane] | – | – | – | – | – | – | – | – | – | – | – | – | – | – | – | CEM: toxicity screen, minimum percent verses a no drug control (WST-CEM T-cell line): 100% ND; MIC [1, 6]: > 45.5 µM; MIC [5]: > 45.5 µM; MIC [3, 7]: > 45.5 µM; MIC (E coli): 45.5 µM (≈ 22.7 µg/mL); MIC (Candida albicans): > 44.4 µM; MIC (Aspergillus fumigatus): > 50 µM; MIC (Bacillus cereus): > 45.5 µM

— patent publication US20020198254A1, “Polyamide analogs” (priority 2000, published 2002)
